Where two headings read alike, the source gives them in different places.
Assays:
[1] = AT1001-045 study: plasma migalastat bioavailability of 150 mg migalastat HCl capsule with caffeine and sweetener beverages relative to water; type: in vivo, human (healthy subjects); settings: 280 mL of coffee containing approximately 190 mg caffeine at the time of dosing, compared to water
[2] = as above; type: in vivo, human (healthy subjects); settings: for AUC0-t Ratio / AUC0-∞ Ratio / Cmax Ratio: percent scale; for Cmax / AUC(0-t) / AUC(0-inf) / Tmax / half-life: both sexes, human, plasma, po, 150 mg; for Cmax: read-out: Cmax GeoMean; for AUC(0-t): read-out: AUC0-t GeoMean; for AUC(0-inf): read-out: AUC0-∞ GeoMean; for Tmax: read-out: tmax Median; for half-life: read-out: t1/2 Mean (converted)
Method: The example describes the AT1001-045 study, which was an open-label study of the bioavailability, safety and tolerability of migalastat in combination with caffeine and sweeteners.
The primary objective was to evaluate plasma migalastat bioavailability of the 150 mg migalastat HCl capsule in a caffeinated beverage, a sucrose beverage, a combination caffeinated and sucrose beverage, an aspartame artificial sweetener beverage, and an acesulfame potassium artificial sweetener beverage relative to water in healthy subjects.
The primary endpoints were ANOVA comparisons of interest between each test treatment and reference treatment for Cmax, AUC0-t and AUC0-∞. The comparisons of interest were point estimate ratios and lower/upper 90% confidence intervals.
This was a single-center, single dose, randomized, open-label, 6-way crossover study. Each subject received a single oral dose of migalastat HCl 150 mg for each of 6 periods.
In randomized sequence, each subject received a 150 mg migalastat HCl capsule with a caffeinated beverage, a sucrose drink, a combination caffeinated and sucrose beverage, an aspartame artificial sweetener drink, an acesulfame potassium artificial sweetener drink, or water.
All study treatments were administered in the fasted condition (overnight+4 hours post-dose).
Each single dose administration was followed by a 72-hour PK sampling period which also served as the between-treatment washout interval.
Appropriate migalastat exposure ratios (Cmax and AUC) with corresponding 90% confidence intervals will be used to address the comparisons of interest: • Caffeine (test) vs. water (reference) • Sucrose (test) vs. water (reference) • Caffeine+Sucrose (test) vs. water (reference) • Aspartame (test) vs. water (reference) • Acesulfame K (test) vs. water (reference)
• Study Population: male and female healthy subjects 18 to 45 years of age. • Sample Size: 20 subjects balanced for gender. • Dose: A single 150 mg capsule of migalastat hydrochloride, provided as GALAFOLD®.
The following test treatments were prepared: • Caffeinated beverage: 8 oz of caffeinated tea; nothing added; administered warm (40 to 50 degrees C.) and consumed within 10 minutes • Sucrose drink: 8 oz sucrose solution prepared with 26 grams sucrose, chilled before drug administration, and consumed within 10 minutes • Equivalent to sucrose content in one 8 oz serving of cane sugar-containing Coca-Cola® • Caffeinated+Sucrose drink: 8 oz caffeinated/sucrose beverage, chilled before drug administration, and consumed within 10 minutes (e.g., Jolt®) • Aspartame: 8 oz aspartame solution prepared with 125 mg aspartame, chilled before drug administration, and consumed within 10 minutes • Equivalent to aspartame content in one 8 oz can of Diet Coke® • Acesulfame K: 8 oz acesulfame K solution prepared with 30 mg acesulfame K, chilled before drug administration, and consumed within 10 minutes • Equivalent to acesulfame K content in one 8 oz can of Diet Coke® or Coca-Cola® Zero Sugar

[3] = taken with food; cited from earlier work
[4] = Acesulfame K (test) vs. water (reference)
[5] = Aspartame (test) vs. water (reference)
[6] = Caffeine (test) vs. water (reference)
[7] = Caffeine + Sucrose (test) vs. water (reference)
[8] = Sucrose (test) vs. water (reference)
[9] = single oral 150 mg migalastat HCl capsule, fasted, with Acesulfame K drink
[10] = single oral 150 mg migalastat HCl capsule, fasted, with Aspartame drink
[11] = single oral 150 mg migalastat HCl capsule, fasted, with Caffeine + Sucrose drink
[12] = single oral 150 mg migalastat HCl capsule, fasted, with Caffeine beverage
[13] = single oral 150 mg migalastat HCl capsule, fasted, with Sucrose drink
[14] = single oral 150 mg migalastat HCl capsule, fasted, with water (reference)

mean reduction in Cmax [1]: 60% | mean reduction in AUC0-∞ ([2]; 280 mL of coffee containing approximately 190 mg caffeine at the time of dosing, compared to water): 57% | AUC0-t Ratio [2, 4]: 93.9 | AUC0-∞ Ratio [2, 4]: 96.1 | Cmax Ratio [2, 4]: 92.3 | AUC0-t Ratio [2, 5]: 104.9 | AUC0-∞ Ratio [2, 5]: 102.9 | Cmax Ratio [2, 5]: 103.3 | AUC0-t Ratio [2, 6]: 43.1 | AUC0-∞ Ratio [2, 6]: 45.8 | Cmax Ratio [2, 6]: 39.9 | AUC0-t Ratio [2, 7]: 46.9 | AUC0-∞ Ratio [2, 7]: 47.7 | Cmax Ratio [2, 7]: 45.9 | AUC0-t Ratio [2, 8]: 92.2 | AUC0-∞ Ratio [2, 8]: 91.8 | Cmax Ratio [2, 8]: 95.3 | Cmax ([2]; single oral 150 mg migalastat HCl capsule, fasted, healthy subjects, with water (reference)): 1330 ng/mL | AUC(0-t) [2, 9]: 8120 ng·h/mL | AUC(0-inf) [2, 9]: 8640 ng·h/mL | Cmax [2, 9]: 1220 ng/mL | Tmax [2, 9]: 4 h | AUC(0-t) [2, 10]: 9080 ng·h/mL | AUC(0-inf) [2, 10]: 9080 ng·h/mL | Cmax [2, 10]: 1370 ng/mL | half-life [2, 10]: 8.1 h | Tmax [2, 10]: 4 h | AUC(0-t) [2, 11]: 4050 ng·h/mL | AUC(0-inf) [2, 11]: 4270 ng·h/mL | Cmax [2, 11]: 611 ng/mL | half-life [2, 11]: 8.8 h | Tmax [2, 11]: 3 h | AUC(0-t) [2, 12]: 3720 ng·h/mL | AUC(0-inf) [2, 12]: 4100 ng·h/mL | Cmax [2, 12]: 529 ng/mL | half-life [2, 12]: 10.2 h | Tmax [2, 12]: 3 h | AUC(0-t) [2, 13]: 7960 ng·h/mL | AUC(0-inf) [2, 13]: 8030 ng·h/mL | Cmax [2, 13]: 1260 ng/mL | half-life [2, 13]: 7.8 h | Tmax [2, 13]: 3 h | AUC(0-t) [2, 14]: 8620 ng·h/mL | AUC(0-inf) [2, 14]: 8610 ng·h/mL | half-life [2, 14]: 7.5 h | Tmax [2, 14]: 4 h | rate of absorption (tmax) effect ([2]; coffee or sweetened beverages in comparison to water): not affected | AUC0-∞ GeoMean [2, 9]: 8621 ng·h/mL | t1/2 Mean [2, 9]: 7.2 h | AUC0-∞ GeoMean [2, 10]: 9043 ng·h/mL | AUC0-∞ GeoMean [2, 13]: 8008 ng·h/mL | AUC0-∞ GeoMean [2, 14]: 8570 ng·h/mL | mean difference in AUC (decrease) ([2]; sucrose vs water): 8% | bioequivalence to water (90% CI within 80% to 125%) ([2]; with acesulfame K): bioequivalent to water | bioequivalence to water (90% CI within 80% to 125%) ([2]; with aspartame): bioequivalent to water | bioequivalence to water (90% CI within 80% to 125%) ([2]; with sucrose): very close to bioequivalent
Compound: OC[C@H]1NC[C@H](O)[C@@H](O)[C@H]1O [migalastat, (2R,3S,4R,5S)-2-(hydroxymethyl) piperdine-3,4,5-triol]
decrease in migalastat exposure [3]: approximately 40%

— patent US20240197706A1, “METHODS OF IMPROVING THE PHARMACOKINETICS OF MIGALASTAT” (Amicus Therapeutics, Inc., priority 2022, published 2024)
